# In US11041205B2, “Molecular targets for ALS and related disorders” (Northwestern University, priority 2010, dated 2021):
# Entries after “also recorded” stand apart in the source; their conditions may differ. Peptide text beside a SMILES is read from it. * marks the point of attachment. Cbz = O=C(OCc1ccccc1)*
# Tested on: Ub^G76V-GFP reporter (ubiquitin-proteasome system) in transiently transfected cells
# Assay: UPS reporter assay (Ub^G76V-GFP, flow cytometry), functionality control with proteasomal inhibitor
# Assay type: cell-based
# Conditions: 5 μM MG-132, 24 hours
# Description: FIGS. 12A-12C show flow-cytometric analysis of untransfected cells (12A), Ub^G76V-GFP transfected cells (12B), and Ub^G76V-GFP transfected cells treated for 24 hours with 5 μM of the proteasomal inhibitor, MG-132 (12C).
# Experiments were conducted during development of embodiments of the present invention to investigate the functional consequences of the mutant ubiquilin2 in protein degradation through the ubiquitin-proteasome system (UPS) was investigated. The UPS reporter substrate Ubiquitin^G76V-Green Fluorescent Protein (Ub^G76V-GFP) was used to test the effects of mutant ubiquilin2 on the ubiquitin-mediated protein degradation. Two mutations at two different sites were tested (P497H and P506T) using the Ub^G76V-GFP reporter system. […]
# SH-SYSY and Neuro2a cells were grown in 24-well plates and double-transfected with the UPS reporter (20) vector containing UbG76V-GFP (Addgene plasmid #11941) and a dual expression vector containing DsRed2 with either wild-type or mutant Ubiquilin 2. […] All flow cytometric data were collected and analyzed using a MoFlo cell sorter and Summit software (DakoCytomation, Fort Collins, Colo.). […] At least 500 such events were recorded. […]
structure (smiles),measurement,value
CC(C)C[C@@H](C=O)NC(=O)[C@H](CC(C)C)NC(=O)[C@H](CC(C)C)NC(=O)OCc1ccccc1 [MG-132] (Cbz-Leu-Leu-Leu-aldehyde),GFP fluorescence (FL1) intensity / accumulation of the Ub^G76V-GFP signal,marked increase in GFP fluorescence (FL1) intensity; also recorded: remarkable accumulation of the Ub^G76V-GFP signal
